Source: patent publication US9012433B2, “Substituted tetracycline compounds” (Paratek Pharmaceuticals, Inc., priority 2006, dated 2015)
Values after ≈ are worked out from the molar mass of the structure shown. Read-outs that look alike come from different tables or passages of the source.

Assays:
S. aureus RN450 [1] = experiment: Antibacterial MIC, CLSI broth microdilution; assay type: cell-based; conditions: 35° C., 18-24 hours; for MIC: Staphylococcus aureus, RN450
Procedure: (§1) Grain (−) and gram (+) antibacterial minimum inhibitory concentration (MIC) values (μg/mL) were obtained using CLSI methodology for anti-bacterial susceptibility testing. On each day of testing, serial dilutions of compounds were prepared in microdilution plates using a Tecan robotic workstation. Mueller Hinton broth cultures of representative sensitive and resistant gram negative strains were grown or adjusted to match the turbidity of a 0.5 McFarland standard. 1:200 dilutions were made in an appropriate broth (cation supplemented Mueller Hinton broth) to allow a final inoculum of 1×10^5 cfu. Plates were incubated at 35° C. in ambient air for 18-24 hours, were read spectrophotometrically and checked manually for evidence of bacterial growth. The lowest dilution of compound that inhibited growth was recorded as the MIC. Lysed horse blood was used to supplement broth for testing S. pneumoniae. The MIC's for each compound were assessed against S. aureus, S. pneumoniae, P. acnes, E. coli and B. theta.

P. acnes ATCC 11827 = experiment: Antibacterial MIC, CLSI broth microdilution; assay type: cell-based; conditions: 35° C., 18-24 hours; for MIC: Cutibacterium acnes, ATCC11827
Procedure: as §1

E. coli ATCC 25922 = experiment: Antibacterial MIC, CLSI broth microdilution; assay type: cell-based; conditions: 35° C., 18-24 hours; for MIC: Escherichia coli, ATCC25922
Procedure: as §1

[2] = test system: S. pneumoniae 157E - Strep; experiment: Antibacterial MIC, CLSI broth microdilution; assay type: cell-based; conditions: 35° C., 18-24 hours, lysed horse blood; for MIC: Streptococcus pneumoniae, 157ESTREP
Procedure: as §1

[3] = test system: B. thetaiotaomicron ATCC 29741; experiment: Antibacterial MIC, CLSI broth microdilution; assay type: cell-based; conditions: for MIC: Bacteroides thetaiotaomicron
Procedure: as §1

E. coli MG 1655 = experiment: Antibacterial MIC, CLSI broth microdilution; assay type: cell-based; conditions: 35° C., 18-24 hours; for MIC: Escherichia coli, MG1655
Procedure: as §1

P. acnes ATCC 6919 = experiment: Antibacterial MIC, CLSI broth microdilution; assay type: cell-based; conditions: 35° C., 18-24 hours; for MIC: Cutibacterium acnes, ATCC6919
Procedure: as §1

in vitro = assay type: cell-based
Procedure: Mammalian cell cytotoxicity was assessed to evaluate potential in vivo risks associated with the tetracycline compounds of the invention. A soluble, non-toxic redox dye (“Resazurin”; Alamar Blue) was used to assess a tetracycline compound's effect on cellular metabolism. At the onset of the experiment, cultures of mammalian COS-1 or CHO cells were washed, trypsinized, and harvested. […] On the next day, serial dilutions of test drug were prepared under sterile conditions and transferred to cell plates. Plates were then incubated under the above conditions for 24 hours. Following the incubation period, the media/drug was aspirated, and 50 μL of resazurin was added. Plates were then incubated under the above conditions for 2 hours and then in the dark at room temperature for an additional 30 minutes. Fluorescence measurements were taken (excitation 535 nm, emission 590 nm) and toxic effects in treated versus control cells were compared based on the degree of fluorescence in each well.

S. aureus RN450 [4] = experiment: In vivo anti-bacterial activity, S. aureus model; conditions: mice, lethal IP S. aureus RN450, subcutaneous, 24 hours
Procedure: Groups of five mice were injected intraperitoneally with a lethal dose of S. aureus RN450 in a medium of mucin. Mice were evaluated at 24 hours to determine survival. […] In some instances, a dose response study was performed with the compound such that a PD50 (a dose of compound that protects 50% of the animals) could be calculated.

[5] = ATCC29741, 35° C., 18-24 hours, read-out: MIC B. thetaiotaomicron ATCC 29741

| Molecule | MIC (S. aureus RN450 [1]) [µg/mL] | MIC (P. acnes ATCC 11827) [µg/mL] | MIC (E. coli ATCC 25922) [µg/mL] | MIC [2] [µg/mL] | MIC [3, 5] [µg/mL] | MIC (E. coli MG 1655) [µg/mL] | MIC (P. acnes ATCC 6919) [µg/mL] | IC50 at 24 h (in vitro; African green monkey) [µg/mL] | IC50 at 24 h (in vitro; Chinese hamster) [µg/mL] | MIC ([3]; ATCC29741, read-out: MIC B. thetaiotaomicron ATCC 29741) [µg/mL] | PD50 (dose that protects 50% of the animals) (S. aureus RN450 [4]) [mg/kg] | MIC S. aureus RN450 (S. aureus RN450 [1]) | MIC P. acnes ATCC 11827 (P. acnes ATCC 11827) | MIC E. coli ATCC 25922 (E. coli ATCC 25922) | MIC S. pneumoniae 157E - Strep [2] | MIC B. thetaiotaomicron ATCC 29741 ([3]; 35° C., 18-24 hours) | MIC E. coli MG 1655 (E. coli MG 1655) | MIC P. acnes ATCC 6919 (P. acnes ATCC 6919) |
| --- | --- | --- | --- | --- | --- | --- | --- | --- | --- | --- | --- | --- | --- | --- | --- | --- | --- | --- |
| C/C(=N\OC(C)(C)C)c1cc(N)c(O)c2c1C[C@H]1C[C@H]3[C@@H](N(C)C)C(O)=C(C(N)=O)C(=O)[C@@]3(O)C(O)=C1C2=O [R] | < 4 | < 4 | > 8 | < 4 | 4 to 8 (≈ 7.37 to 14.7 µM) | > 8 | < 4 | < 35 | < 35 | – | – | – | – | – | – | – | – | – |
| CN(C)[C@@H]1C(O)=C(C(N)=O)C(=O)[C@@]2(O)C(O)=C3C(=O)c4cccc(-c5ncccn5)c4C[C@H]3C[C@@H]12 [S] | < 4 | 4 to 8 (≈ 8.39 to 16.8 µM) | > 8 | < 4 | > 8 | > 8 | 4 to 8 (≈ 8.39 to 16.8 µM) | > 75 | > 75 | – | – | – | – | – | – | – | – | – |
| CN(C)[C@@H]1C(O)=C(C(N)=O)C(=O)[C@@]2(O)C(O)=C3C(=O)c4c(O)ccc(-c5ccc[nH]5)c4C[C@H]3C[C@@H]12 [T, (4S,4aS,5aR,12aS)-4-Dimethylamino-3,10,12,12a-tetrahydroxy-1,11-dioxo-7-(1H-pyrrol-2-yl)-1,4,4a,5,5a,6,11,12a-octahydro-naphthacene-2-carboxylic acid amide] | < 4 | < 4 | < 4 | < 4 | 4 to 8 (≈ 8.34 to 16.7 µM) | < 4 | < 4 | < 35 | < 35 | – | – | – | – | – | – | – | – | – |
| CN(C)[C@@H]1C(O)=C(C(N)=O)C(=O)[C@@]2(O)C(O)=C3C(=O)c4c(O)ccc(CN5CCCO5)c4C[C@H]3C[C@@H]12 [U] | < 4 | < 4 | < 4 | < 4 | 4 to 8 (≈ 8.01 to 16 µM) | 4 to 8 (≈ 8.01 to 16 µM) | < 4 | > 75 | 35 to 75 (≈ 70.1 to 150 µM) | – | – | – | – | – | – | – | – | – |
| CN(C)[C@@H]1C(O)=C(C(N)=O)C(=O)[C@@]2(O)C(O)=C3C(=O)c4c(O)ccc(/C=N/NC(C)(C)C)c4C[C@H]3C[C@@H]12 [X] | < 4 | < 4 | < 4 | < 4 | < 4 | < 4 | < 4 | < 35 | < 35 | – | – | – | – | – | – | – | – | – |
| CON(C)Cc1ccc(O)c2c1C[C@H]1C[C@H]3[C@@H](N(C)C)C(O)=C(C(N)=O)C(=O)[C@@]3(O)C(O)=C1C2=O [Y] | < 4 | < 4 | > 8 | 4 to 8 (≈ 8.2 to 16.4 µM) | – | > 8 | < 4 | > 75 | > 75 | > 8 | – | – | – | – | – | – | – | – |
| CCNN(CC)Cc1ccc(O)c2c1C[C@H]1C[C@H]3[C@H](N(C)C)C(O)=C(C(N)=O)C(=O)[C@@]3(O)C(O)=C1C2=O [Z, (4S,4aS,5aR,12aS)-7-(N,N″-Diethyl-hydrazinomethyl)-4-dimethylamino-3,10,12,12a-tetrahydroxy-1,11-dioxo-1,4,4a,5,5a,6,11,12a-octahydro-naphthacene-2-carboxylic acid amide] | < 4 | < 4 | 4 to 8 (≈ 7.77 to 15.5 µM) | < 4 | > 8 | 4 to 8 (≈ 7.77 to 15.5 µM) | < 4 | > 75 | > 75 | – | – | – | – | – | – | – | – | – |
| (4S,4aS,5aR,12aS)-4-Dimethylamino-3,12,12a-trihydroxy-1,11-dioxo-7-pyrazin-2-yl-1,4,4a,5,5a,6,11,12a-octahydro-naphthacene-2-carboxylic acid amide [W] | – | – | – | – | – | – | – | – | – | – | 1.08 | *** (Good antibacterial activity (e.g., less than about 4 μg/mL)) | *** (Good antibacterial activity (e.g., less than about 4 μg/mL)) | * (weak or no antibacterial activity (greater than about 8 μg/mL)) | *** (Good antibacterial activity (e.g., less than about 4 μg/mL)) | * (weak or no antibacterial activity (greater than about 8 μg/mL)) | * (weak or no antibacterial activity (greater than about 8 μg/mL)) | *** (Good antibacterial activity (e.g., less than about 4 μg/mL)) |
